Results reported in PubChem BioAssay AID2060907 (Molecular Pharmacology Branch, DTP, NCI, 2025).

Test system: 388556-164-R-J1-PDC complex spheroid viability
Assay: Anticancer human tumor 388556-164-R-J1-PDC patient-derived colon adenocarcinoma cell line growth inhibition [RAS]
Details: for IC50: curve of first compound; for viability, T/C: stronger effect = lower value
How it was run: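 Tumour cells grown as complex spheroids with HUVEC endothelial cells and mesenchymal stem cells, treated with RAS pathway inhibitor combinations. Each agent spans half-log steps from near clinical Cmax, or 10 microM where Cmax is unknown.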

[1] = second compound 0.00316 µM, first compound 0.0316 µM
[2] = second compound 0.00316 µM, first compound 0.1 µM
[3] = second compound 0.00316 µM, first compound 0.316 µM
[4] = second compound 0.00316 µM, first compound 1 µM
[5] = second compound 0.00316 µM, first compound 3.16 µM
[6] = second compound 0.00316 µM, first compound 10 µM
[7] = second compound 0.01 µM, first compound 0.0316 µM
[8] = second compound 0.01 µM, first compound 0.1 µM
[9] = second compound 0.01 µM, first compound 0.316 µM
[10] = second compound 0.01 µM, first compound 1 µM
[11] = second compound 0.01 µM, first compound 3.16 µM
[12] = second compound 0.01 µM, first compound 10 µM
[13] = second compound 0.0316 µM, first compound 0.0316 µM
[14] = second compound 0.0316 µM, first compound 0.1 µM
[15] = second compound 0.0316 µM, first compound 0.316 µM
[16] = second compound 0.0316 µM, first compound 1 µM
[17] = second compound 0.0316 µM, first compound 3.16 µM
[18] = second compound 0.0316 µM, first compound 10 µM
[19] = second compound 0.1 µM, first compound 0.0316 µM
[20] = second compound 0.1 µM, first compound 0.1 µM
[21] = second compound 0.1 µM, first compound 0.316 µM
[22] = second compound 0.1 µM, first compound 1 µM
[23] = second compound 0.1 µM, first compound 3.16 µM
[24] = second compound 0.1 µM, first compound 10 µM
[25] = second compound 0.316 µM, first compound 0.0316 µM
[26] = second compound 0.316 µM, first compound 0.1 µM
[27] = second compound 0.316 µM, first compound 0.316 µM
[28] = second compound 0.316 µM, first compound 1 µM
[29] = second compound 0.316 µM, first compound 3.16 µM
[30] = second compound 0.316 µM, first compound 10 µM
[31] = second compound 1 µM, first compound 0.0316 µM
[32] = second compound 1 µM, first compound 0.1 µM
[33] = second compound 1 µM, first compound 0.316 µM
[34] = second compound 1 µM, first compound 1 µM
[35] = second compound 1 µM, first compound 3.16 µM
[36] = second compound 1 µM, first compound 10 µM
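Also: spheroids exposed to compound for 7 days before readout.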
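For viability, T/C in this document: 100% = DMSO vehicle control luminescence.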

## CCc1c2c(nc3ccc(O)cc13)-c1cc3c(c(=O)n1C2)COC(=O)[C@]3(O)CC + CCn1c(-c2cc(N3CCN(C)CC3)cnc2C(C)OC)c2c3cc(ccc31)-c1csc(n1)CC(NC(=O)C1CC1C)C(=O)N1CCCC(N1)C(=O)OCC(C)(C)C2
Second compound 0.000949 µM
  IC50: 0.0466 µM
Second compound 0.003 µM
  IC50: 0.0281 µM
Second compound 0.00949 µM
  IC50: 0.0196 µM
Second compound 0.03 µM
  IC50: 0.00733 µM
Second compound 0.0949 µM
  IC50: < 0.000949 µM
Second compound 0.3 µM
  IC50: < 0.000949 µM
Second compound 0.000949 µM, first compound 0.000949 µM
  viability, T/C: 90.3%
Second compound 0.000949 µM, first compound 0.003 µM
  viability, T/C: 89.5%
Second compound 0.000949 µM, first compound 0.00949 µM
  viability, T/C: 66.3%
Second compound 0.000949 µM, first compound 0.03 µM
  viability, T/C: 56%
Second compound 0.000949 µM, first compound 0.0949 µM
  viability, T/C: 42.1%
Second compound 0.000949 µM, first compound 0.3 µM
  viability, T/C: 23.5%
Second compound 0.003 µM, first compound 0.000949 µM
  viability, T/C: 89.9%
Second compound 0.003 µM, first compound 0.003 µM
  viability, T/C: 83.6%
Second compound 0.003 µM, first compound 0.00949 µM
  viability, T/C: 67.5%
Second compound 0.003 µM, first compound 0.03 µM
  viability, T/C: 46.3%
Second compound 0.003 µM, first compound 0.0949 µM
  viability, T/C: 36.4%
Second compound 0.003 µM, first compound 0.3 µM
  viability, T/C: 21.8%
Second compound 0.00949 µM, first compound 0.000949 µM
  viability, T/C: 82.2%
Second compound 0.00949 µM, first compound 0.003 µM
  viability, T/C: 78.4%
Second compound 0.00949 µM, first compound 0.00949 µM
  viability, T/C: 55.7%
Second compound 0.00949 µM, first compound 0.03 µM
  viability, T/C: 41.8%
Second compound 0.00949 µM, first compound 0.0949 µM
  viability, T/C: 36.5%
Second compound 0.00949 µM, first compound 0.3 µM
  viability, T/C: 18.7%
Second compound 0.03 µM, first compound 0.000949 µM
  viability, T/C: 58.2%
Second compound 0.03 µM, first compound 0.003 µM
  viability, T/C: 55.5%
Second compound 0.03 µM, first compound 0.00949 µM
  viability, T/C: 50.5%
Second compound 0.03 µM, first compound 0.03 µM
  viability, T/C: 37.8%
Second compound 0.03 µM, first compound 0.0949 µM
  viability, T/C: 30.2%
Second compound 0.03 µM, first compound 0.3 µM
  viability, T/C: 16.6%
Second compound 0.0949 µM, first compound 0.000949 µM
  viability, T/C: 44.3%
Second compound 0.0949 µM, first compound 0.003 µM
  viability, T/C: 39.1%
Second compound 0.0949 µM, first compound 0.00949 µM
  viability, T/C: 48.9%
Second compound 0.0949 µM, first compound 0.03 µM
  viability, T/C: 30.1%
Second compound 0.0949 µM, first compound 0.0949 µM
  viability, T/C: 25.9%
Second compound 0.0949 µM, first compound 0.3 µM
  viability, T/C: 14.3%
Second compound 0.3 µM, first compound 0.000949 µM
  viability, T/C: 32.4%
Second compound 0.3 µM, first compound 0.003 µM
  viability, T/C: 31.5%
Second compound 0.3 µM, first compound 0.00949 µM
  viability, T/C: 28.2%
Second compound 0.3 µM, first compound 0.03 µM
  viability, T/C: 30.1%
Second compound 0.3 µM, first compound 0.0949 µM
  viability, T/C: 21.2%
Second compound 0.3 µM, first compound 0.3 µM
  viability, T/C: 11.5%

## CC1(O)CCCC1n1c(=O)c(C(F)F)cc2cnc(NC3CCN(S(C)(=O)=O)CC3)nc21 (stereo unspecified) + C=CC(=O)N1CCN(c2nc(OCC3CCCN3C)nc3c(F)c(-c4nc(N)cc(C)c4C(F)(F)F)c(Cl)cc23)C(C)C1
Second compound 0.00316 µM
  IC50: > 10 µM
Second compound 0.01 µM
  IC50: > 10 µM
Second compound 0.0316 µM
  IC50: > 10 µM
Second compound 0.1 µM
  IC50: > 10 µM
Second compound 0.316 µM
  IC50: > 10 µM
Second compound 1 µM
  IC50: > 10 µM
[1]
  viability, T/C: 98.3%
[2]
  viability, T/C: 103%
[3]
  viability, T/C: 105%
[4]
  viability, T/C: 99.8%
[5]
  viability, T/C: 109%
[6]
  viability, T/C: 73.5%
[7]
  viability, T/C: 93.7%
[8]
  viability, T/C: 107%
[9]
  viability, T/C: 101%
[10]
  viability, T/C: 98.9%
[11]
  viability, T/C: 105%
[12]
  viability, T/C: 77.2%
[13]
  viability, T/C: 101%
[14]
  viability, T/C: 104%
[15]
  viability, T/C: 102%
[16]
  viability, T/C: 108%
[17]
  viability, T/C: 115%
[18]
  viability, T/C: 81%
[19]
  viability, T/C: 103%
[20]
  viability, T/C: 108%
[21]
  viability, T/C: 99.5%
[22]
  viability, T/C: 99.2%
[23]
  viability, T/C: 102%
[24]
  viability, T/C: 76%
[25]
  viability, T/C: 102%
[26]
  viability, T/C: 91.7%
[27]
  viability, T/C: 96.9%
[28]
  viability, T/C: 97.7%
[29]
  viability, T/C: 101%
[30]
  viability, T/C: 75.3%
[31]
  viability, T/C: 98.7%
[32]
  viability, T/C: 102%
[33]
  viability, T/C: 100%
[34]
  viability, T/C: 111%
[35]
  viability, T/C: 104%
[36]
  viability, T/C: 68.7%

## CC(=O)OC12COC1CC(O)C1(C)C(=O)C(O)C3=C(C)C(OC(=O)C(O)C(NC(=O)OC(C)(C)C)c4ccccc4)CC(O)(C(OC(=O)c4ccccc4)C21)C3(C)C (stereo unspecified) + C=CC(=O)N1CCN(c2nc(OCC3CCCN3C)nc3c(F)c(-c4nc(N)cc(C)c4C(F)(F)F)c(Cl)cc23)C(C)C1
Second compound 0.00316 µM
  IC50: > 10 µM
Second compound 0.01 µM
  IC50: > 10 µM
Second compound 0.0316 µM
  IC50: > 10 µM
Second compound 0.1 µM
  IC50: > 10 µM
Second compound 0.316 µM
  IC50: > 10 µM
Second compound 1 µM
  IC50: > 10 µM
[1]
  viability, T/C: 88.1%
[2]
  viability, T/C: 80.7%
[3]
  viability, T/C: 77%
[4]
  viability, T/C: 75.7%
[5]
  viability, T/C: 74.6%
[6]
  viability, T/C: 71.2%
[7]
  viability, T/C: 82.8%
[8]
  viability, T/C: 78.8%
[9]
  viability, T/C: 70.5%
[10]
  viability, T/C: 80.3%
[11]
  viability, T/C: 79.4%
[12]
  viability, T/C: 71.8%
[13]
  viability, T/C: 84.4%
[14]
  viability, T/C: 83.4%
[15]
  viability, T/C: 84.7%
[16]
  viability, T/C: 76.9%
[17]
  viability, T/C: 76%
[18]
  viability, T/C: 71.3%
[19]
  viability, T/C: 78.3%
[20]
  viability, T/C: 69.5%
[21]
  viability, T/C: 72.4%
[22]
  viability, T/C: 74%
[23]
  viability, T/C: 78.4%
[24]
  viability, T/C: 73.2%
[25]
  viability, T/C: 78.6%
[26]
  viability, T/C: 81.4%
[27]
  viability, T/C: 79.1%
[28]
  viability, T/C: 74.5%
[29]
  viability, T/C: 72.7%
[30]
  viability, T/C: 76.6%
[31]
  viability, T/C: 87.6%
[32]
  viability, T/C: 79.3%
[33]
  viability, T/C: 74.9%
[34]
  viability, T/C: 82.8%
[35]
  viability, T/C: 76%
[36]
  viability, T/C: 70.5%
